Measured values published in patent US20090221559A1 (priority 2005, published 2009).
Where two headings read alike, the source gives them in different places.

Key:
[1] = system: HCV replicon RNA replication in Huh-7 luc/neo (Huh-Luc) cells; assay: HCV replicon assay (stable replicon cell reporter assay, luciferase read-out); assay type: cell-based, HCV type 1b
Experimental: (§1) The compounds of formula (I) were tested for anti-HCV activity in an assay determining their activity against NS5b polymerase and in an HCV replicon assay
The compounds of the present invention were examined for activity in the inhibition of HCV RNA replication in a cellular assay. […] The cellular assay was based on a bicistronic expression construct, as described by Lohmann et al. (1999) Science vol. 285 pp. 110-113 with modifications described by Krieger et al. (2001) Journal of Virology 75: 4614-4624, in a multi-target screening strategy. In essence, the method was as follows.
The assay utilized the stably transfected cell line Huh-7 luc/neo (hereafter referred to as Huh-Luc). This cell line harbored an RNA encoding a bicistronic expression construct comprising the wild type NS3-NS5B regions of HCV type 1b translated from an Internal Ribosome Entry Site (IRES) from encephalomyocarditis virus (EMCV), preceded by a reporter portion (FfL-luciferase), and a selectable marker portion (neo^R, neomycine phosphotransferase). The construct was bordered by 5′ and 3′ NTRs (non-translated regions) from HCV type 1b. Continued culture of the replicon cells in the presence of G418 (neo^R) was dependent on the replication of the HCV RNA. The stably transfected replicon cells that expressed HCV RNA, which replicated autonomously and to high levels, encoding inter alia luciferase, were used for screening the antiviral compounds.
The replicon cells were plated in 384 well plates in the presence of the test and control compounds which were added in various concentrations. Following an incubation of three days, HCV replication was measured by assaying luciferase activity (using standard luciferase assay substrates and reagents and a Perkin Elmer ViewLux™ ultraHTS microplate imager). […] The inhibitory activity of the compound on luciferase activity was monitored on the Huh-Luc cells, enabling a dose-response curve for each test compound.

[2] = biological target: T1, HCV NS5B polymerase (His-tagged, C-terminal 21 amino acid deleted NS5B, HC-J4) (Hepatitis C virus genotype 1b, UniProt O92972); assay: NS5b polymerase assay (biochemical RdRp assay, 3H-GTP incorporation, SPA beads); set-up: species or system HCV genotype 1b
T1 construct: The cDNA encoding NS5B amino acid 1-570 (HC-J4, genotype 1b); His tag (His6, from pET-21b) (C); made in house; host or cells: E. coli BL21 (DE3)
Experimental: as §1
The cDNA encoding NS5B amino acid 1-570 (HC-J4, genotype 1b, pCV-J4L6S, genebank accession number AF054247) was subcloned into the Nhe I and Xho I restriction sites of pET-21b. Expression of the subsequent His-tagged C-terminal 21 amino acid deleted NS5B was performed as follows:
Following transformation in BL21 (DE3) competent cells, bacterial cells were grown in 22 liter LB/Amp media until to reach OD600=0.4-0.6. Protein expression was induced by addition of IPTG 0.4 mM, supplemented with 10 μM MgCl2, and incubated for 14-16 hrs at 20° C. Cells were harvested, resuspended in lysis buffer (20 mM Tris-HCl pH=7.5, 0.3 M NaCl, 10% glycerol, 0.1% NP40, 4 mM MgCl2, 14 mM beta-mercaptoethanol, with tablet of EDTA-free protease cocktail inhibitors) and lysed by sonification. The cell lysate was cleared by high-speed centrifugation (20K×g for 30 min), captured on Ni-NTA beads for 70 min at 4° C., and eluted with 25 mM Hepes pH 7.5, 0.5 M NaCl, 10% glycerol, 14 mM BME, 500 mM imidazole. The eluent was dialysed against 25 mM Hepes pH 7.5, 10% glycerol, 50 mM NaCl, 14 mM BME, after which the protein was further purified by heparin chromatography using the same buffer with 1 M NaCl for elution. Fractions containing pure protein were collected, dialyzed against storage buffer 25 mM Hepes pH=7.5, 300 mM NaCl, 10% glycerol, 14 mM BME), and flash-freezed in liquid nitrogen.
Measurement of HCV NS5B polymerization activity was performed by evaluating the amount of radiolabeled GTP incorporated by the enzyme in a newly synthesized RNA using heteropolymeric RNA template/primer. The highthroughput RdRp assay was carried out in 384-well plates using 200 nM enzyme, 0.1 μCi of ^3H GTP, 5 mM MgCl2, 600 nM GTP, 30 nM PolyC, 300 nM 5′-biotinylated oligo(rG13)/poly(rC) in 20 mM Tris pH 7.5, 21 mM KCl, 2.5 mM DTT, 16.7 mM NaCl and 0.17 mM EDTA. Test compounds were dissolved in dimethylsulfoxide. The test compounds were added to the preformed polymerase-template complex, and incubated at room temperature (RT) for 15 min before the addition of NTPs. The 30-μl reaction was terminated after 2 h at 25° C. upon addition of 30-μl PVT-SPA beads (Amersham Biosciences RPNQ0009, 5 mg/ml in 0.5 M EDTA).

[3] = Hepatitis C virus, Huh-7, 72 h, read-out: Replicon Assay EC50, Huh-Luc cells, three days incubation, luciferase activity
[4] = NS5B Polymerase Assay IC50, 200 nM enzyme, 3H-GTP incorporation, 2 h at 25° C.
[5] = read-out: Replicon Assay EC50, Huh-Luc cells, incubation of three days, luciferase activity
[6] = read-out: NS5B Polymerase Assay IC50
[7] = Hepatitis C virus, Huh-7, 72 h, read-out: Replicon Assay EC50 (μM), Huh-Luc cells, incubation of three days, luciferase activity
[8] = NS5B Polymerase Assay IC50 (μM)

T1 sequence (O92972 2417-3000, looked up, stated change not applied): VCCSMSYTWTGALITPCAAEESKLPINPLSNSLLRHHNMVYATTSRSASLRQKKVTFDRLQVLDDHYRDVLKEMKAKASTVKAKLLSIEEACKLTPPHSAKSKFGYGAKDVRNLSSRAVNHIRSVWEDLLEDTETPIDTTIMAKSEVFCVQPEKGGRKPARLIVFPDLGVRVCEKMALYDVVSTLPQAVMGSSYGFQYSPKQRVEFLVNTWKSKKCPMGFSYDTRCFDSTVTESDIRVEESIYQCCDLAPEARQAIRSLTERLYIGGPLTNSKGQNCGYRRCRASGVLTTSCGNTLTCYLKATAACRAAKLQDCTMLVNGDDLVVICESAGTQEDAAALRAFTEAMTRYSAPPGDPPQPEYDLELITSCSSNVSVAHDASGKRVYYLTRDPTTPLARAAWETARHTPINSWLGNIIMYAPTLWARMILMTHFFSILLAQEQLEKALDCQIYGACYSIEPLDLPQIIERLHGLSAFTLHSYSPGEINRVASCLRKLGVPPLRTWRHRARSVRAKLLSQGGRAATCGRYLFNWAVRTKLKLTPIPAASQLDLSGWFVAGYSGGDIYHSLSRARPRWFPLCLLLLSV

Structure (SMILES)	EC50 [1, 3] [µM]	IC50 [2, 4] [µM]	further results
CC(=O)N1c2ccccc2NC2=C(C(=O)CC(C)(C)C2)[C@H]1c1ccc(OCc2ccccc2)cc1Cl (single isomer, unassigned) [compound 305]	7.74	0.035	
CC(=O)N1c2ccccc2NC2=C(C(=O)CC(C)(C)C2)[C@@H]1c1ccc(OCc2ccccc2)cc1Cl (single isomer, unassigned) [compound 306]	3.92	83.1	
O=C1CC(c2ccccc2OCc2ccccc2)CC2=C1C(c1ccc(Cl)cc1Cl)Nc1ccccc1N2 (single isomer, unassigned) [compound 417, 3-(2-Benzyloxyphenyl)-11-(2,4-dichlorophenyl)-2,3,4,5,10,11-hexahydro-dibenzo[b,e][1,4]diazepin-1-one]			EC50 [1, 5]: 8.33 µM; IC50 [2, 6]: > 42.7 µM
O=C1CC(c2ccccc2OCc2ccccc2)CC2=C1C(c1cccc(OCc3ccccc3)c1)Nc1ccccc1N2 (single isomer, unassigned) [compound 418, 3-(2-Benzyloxyphenyl)-11-(3-benzyloxyphenyl)-2,3,4,5,10,11-hexahydro-dibenzo[b,e][1,4]diazepin-1-one]			EC50 [1, 5]: 2.16 µM; IC50 [2, 6]: > 42.7 µM
O=C1CC(c2ccccc2OCc2ccccc2)CC2=C1C(c1ccc(Cl)cc1Cl)Nc1ccccc1N2 (single isomer, unassigned) [compound 419, 3-(2-Benzyloxyphenyl)-11-(2,4-dichlorophenyl)-2,3,4,5,10,11-hexahydro-dibenzo[b,e][1,4]diazepin-1-one]			EC50 [1, 7]: 4.82 µM; IC50 [2, 8]: > 42.7 µM
O=C1CC(c2ccccc2OCc2ccccc2)CC2=C1C(c1cccc(OCc3ccccc3)c1)Nc1ccccc1N2 (single isomer, unassigned) [compound 420, 3-(2-Benzyloxyphenyl)-11-(3-benzyloxyphenyl)-2,3,4,5,10,11-hexahydro-dibenzo[b,e][1,4]diazepin-1-one]			EC50 [1, 7]: 3.23 µM; IC50 [2, 8]: > 42.7 µM
O=C1C[C@@H](c2ccccc2OCc2ccccc2)CC2=C1C(c1cccc(OC(=O)c3ccc(Cl)cc3)c1)Nc1ccccc1N2 (single isomer, unassigned) [compound 512, 11-[3-(4-Chlorobenzoyloxy)phenyl]-3-(2-benzyloxyphenyl)-2,3,4,5,10,11-hexahydro-dibenzo[b,e][1,4]diazepin-1-one]			EC50 [1, 7]: 8.42 µM; IC50 [2, 8]: 84.5 µM
CCCCC(=O)N1c2ccccc2NC2=C(C(=O)CC(C)(C)C2)C1c1ccc(OC)cc1OC (stereo not drawn) [compound 1]	8.53	> 42.7	
CCOc1ccc(C2C3=C(CC(C)(C)CC3=O)Nc3ccccc3N2C(=O)C(F)(F)F)cc1 (stereo not drawn) [compound 2]	26.5	> 42.7	
COc1ccc(OC)c(C2C3=C(CC(C)(C)CC3=O)Nc3ccccc3N2C(=O)C(F)(F)F)c1 (stereo not drawn) [compound 3]	> 32	> 42.7	
CC(=O)N1c2ccccc2NC2=C(C(=O)CC(C)(C)C2)C1c1ccc(F)cc1 (stereo not drawn) [compound 4]	> 32	> 42.7	
CC(C)C(=O)N1c2ccccc2NC2=C(C(=O)CC(C)(C)C2)C1c1ccc(C(F)(F)F)cc1 (stereo not drawn) [compound 5]	19.9	> 42.7	
CCCCCC(=O)N1c2ccccc2NC2=C(C(=O)CC(C)(C)C2)C1c1ccccc1OCc1ccccc1 (stereo not drawn) [compound 6]	7.32	> 42.7	
CCCCC(=O)N1c2ccccc2NC2=C(C(=O)CC(C)(C)C2)C1c1ccc(Cl)cc1 (stereo not drawn) [compound 7]	8.31	> 42.7	
CN(C)c1ccc(C2C3=C(CC(C)(C)CC3=O)Nc3ccccc3N2C(=O)Cc2ccc(Cl)cc2)cc1 (stereo not drawn) [compound 8]	5.65	> 42.7	
CC(C)CC(=O)N1c2ccccc2NC2=C(C(=O)CC(C)(C)C2)C1c1ccc(Cl)cc1 (stereo not drawn) [compound 9]	3.61	> 42.7	
CCCCC(=O)N1c2ccccc2NC2=C(C(=O)CC(C)(C)C2)C1c1ccc(F)cc1 (stereo not drawn) [compound 10]	19.5	> 33.3	

Structure (SMILES)	EC50 [1, 3] [µM]	IC50 [2, 4] [µM]	further results
CCC(=O)N1c2ccccc2NC2=C(C(=O)CC(C)(C)C2)C1c1ccccc1OCc1ccccc1 (stereo not drawn) [compound 11]	14.7	> 42.7	
COc1ccc(C2C3=C(CC(C)(C)CC3=O)Nc3ccccc3N2C(=O)Cc2ccc(Cl)cc2)cc1 (stereo not drawn) [compound 12]	3.11	> 42.7	
CC1(C)CC(=O)C2=C(C1)Nc1ccccc1N(C(=O)c1ccccc1)C2c1ccc([N+](=O)[O-])cc1 (stereo not drawn) [compound 13]	20.4	> 42.7	
CCCCOc1ccc(C2C3=C(CC(C)(C)CC3=O)Nc3ccccc3N2C(=O)C(C)C)cc1 (stereo not drawn) [compound 14]	10.6	> 33.3	
COc1c(Cl)cc(Cl)cc1C1C2=C(CC(C)(C)CC2=O)Nc2ccccc2N1C(=O)Cc1ccccc1 (stereo not drawn) [compound 15]	3.09	> 42.7	
CC1(C)CC(=O)C2=C(C1)Nc1ccccc1N(C(=O)Cc1ccccc1)C2c1c(Cl)cccc1Cl (stereo not drawn) [compound 16]	10.6	> 42.7	
CCCCC(=O)N1c2ccccc2NC2=C(C(=O)CC(C)(C)C2)C1c1ccc(Cl)cc1Cl (stereo not drawn) [compound 17]	6.59	> 42.7	
CC(=O)N1c2ccccc2NC2=C(C(=O)CC(C)(C)C2)C1c1ccccc1OCc1ccccc1 (stereo not drawn) [compound 19]		> 42.7	EC50 ([1]; read-out: Replicon Assay EC50, Huh-Luc cells, three days incubation, luciferase activity): > 32 µM
CC1(C)CC(=O)C2=C(C1)Nc1ccccc1N(C(=O)Cc1ccccc1)C2c1ccc(Cl)cc1 (stereo not drawn) [compound 20]	6.58	> 42.6	
COc1ccc(C2C3=C(CC(C)(C)CC3=O)Nc3ccccc3N2C(=O)CSc2nc3ccccc3s2)cc1 (stereo not drawn) [compound 21]	14.2	> 42.7	
COc1ccc(OC)c(C2C3=C(CC(C)(C)CC3=O)Nc3ccccc3N2C(=O)Cc2ccccc2)c1 (stereo not drawn) [compound 22]	10.8	> 42.6	
CC(C)C(=O)N1c2ccccc2NC2=C(C(=O)CC(C)(C)C2)C1c1ccccc1F (stereo not drawn) [compound 23]	20.3	> 42.7	
CC(=O)N1c2ccccc2NC2=C(C(=O)CC(C)(C)C2)C1c1c(F)cccc1Cl (stereo not drawn) [compound 24]	13	> 42.7	
CC1(C)CC(=O)C2=C(C1)Nc1ccccc1N(C(=O)C(F)(F)F)C2c1cccc(Cl)c1Cl (stereo not drawn) [compound 25]	24.6	> 42.7	
CC1(C)CC(=O)C2=C(C1)Nc1ccccc1N(C(=O)c1ccccc1F)C2c1ccccc1OCc1ccccc1 (stereo not drawn) [compound 27]	20.7	> 42.7	
CC(C)C(=O)N1c2ccccc2NC2=C(C(=O)CC(C)(C)C2)C1c1ccc(Cl)cc1Cl (stereo not drawn) [compound 28]	5.52	> 42.7	
